Laboratory results as given in US10570149B2, “Tricyclic heterocylic derivatives” (MERCK PATENT GMBH, priority 2016, dated 2020).
Where two headings read alike, the source gives them in different places.

How the values were obtained:
[1] = system: phosphorylation of Chk1 (Ser 345) in HT29 colon adenocarcinoma cells; assay: pCHK1 cellular assay; format: cell-based; settings: Homo sapiens, HT-29, Table 1, class symbols, hydroxyurea
From the text: Chk1 kinase acts downstream of ATR and has a key role in DNA damage checkpoint control. Activation of Chk1 involves phosphorylation of Ser317 and Ser345 (regarded as the preferential target for phosphorylation/activation by ATR) and occurs in response to blocked DNA replication and certain forms of genotoxic stress. Phosphorylation at Ser 345 serves to localize Chk1 to the nucleus following checkpoint activation.
This assay measures a decrease in phosphorylation of Chk1 (Ser 345) in HT29 colon adenocarcinoma cells following treatment with compound and hydroxyurea (which promotes fork stalling because of dNTP depletion) and using an immunocytochemical procedure and high content imaging.
For the assay HT29 cells are plated in culture medium (DMEM high Glucose (no phenol red), 2 mM Glutamax, 1 mM Pyruvate, 10% FCS into Greiner 384 well plates, black, μclear #781090 (2500 cells/well/30 μl) and incubated for at least 20 hours at 37° C., 10% CO2 and 90% rH. Diluted test compounds (1 nM-30 μM final) and hydroxyurea (3 mM final) are added simultaneously and cells are incubated for 4 h at 37° C. After fixation/prmeabilisation with 100% MeOH (−20° C. cold) and permeabilisation with 0.2% Triton X-100 a complete immunocytochemical procedure is performed using a specific anti-pChk1 antibody (Cell Signaling, #2348BF) and fluorescently labelled secondary antibody (Alexa Fluor® 488 goat anti-rabbit F(ab′)2 fragment, Invitrogen A11070) and parallel nuclear staining for cell counting.
The nuclear localised pChk1 signal is detected on an ImageXpress Ultra confocal high content reader and reported as % positive cells (nuclei).

ATR/ATRIP = biological target: T1, ATR/ATRIP (Homo sapiens, UniProt Q13535); assay: ATR/ATRIP kinase assay (TR-FRET, p53 phosphorylation); format: biochemical
T1 construct: human ATR, full length, GenBank ID: NM_001184.3; p53: Sf21 insect cells
T1 sequence (Q13535 whole entry): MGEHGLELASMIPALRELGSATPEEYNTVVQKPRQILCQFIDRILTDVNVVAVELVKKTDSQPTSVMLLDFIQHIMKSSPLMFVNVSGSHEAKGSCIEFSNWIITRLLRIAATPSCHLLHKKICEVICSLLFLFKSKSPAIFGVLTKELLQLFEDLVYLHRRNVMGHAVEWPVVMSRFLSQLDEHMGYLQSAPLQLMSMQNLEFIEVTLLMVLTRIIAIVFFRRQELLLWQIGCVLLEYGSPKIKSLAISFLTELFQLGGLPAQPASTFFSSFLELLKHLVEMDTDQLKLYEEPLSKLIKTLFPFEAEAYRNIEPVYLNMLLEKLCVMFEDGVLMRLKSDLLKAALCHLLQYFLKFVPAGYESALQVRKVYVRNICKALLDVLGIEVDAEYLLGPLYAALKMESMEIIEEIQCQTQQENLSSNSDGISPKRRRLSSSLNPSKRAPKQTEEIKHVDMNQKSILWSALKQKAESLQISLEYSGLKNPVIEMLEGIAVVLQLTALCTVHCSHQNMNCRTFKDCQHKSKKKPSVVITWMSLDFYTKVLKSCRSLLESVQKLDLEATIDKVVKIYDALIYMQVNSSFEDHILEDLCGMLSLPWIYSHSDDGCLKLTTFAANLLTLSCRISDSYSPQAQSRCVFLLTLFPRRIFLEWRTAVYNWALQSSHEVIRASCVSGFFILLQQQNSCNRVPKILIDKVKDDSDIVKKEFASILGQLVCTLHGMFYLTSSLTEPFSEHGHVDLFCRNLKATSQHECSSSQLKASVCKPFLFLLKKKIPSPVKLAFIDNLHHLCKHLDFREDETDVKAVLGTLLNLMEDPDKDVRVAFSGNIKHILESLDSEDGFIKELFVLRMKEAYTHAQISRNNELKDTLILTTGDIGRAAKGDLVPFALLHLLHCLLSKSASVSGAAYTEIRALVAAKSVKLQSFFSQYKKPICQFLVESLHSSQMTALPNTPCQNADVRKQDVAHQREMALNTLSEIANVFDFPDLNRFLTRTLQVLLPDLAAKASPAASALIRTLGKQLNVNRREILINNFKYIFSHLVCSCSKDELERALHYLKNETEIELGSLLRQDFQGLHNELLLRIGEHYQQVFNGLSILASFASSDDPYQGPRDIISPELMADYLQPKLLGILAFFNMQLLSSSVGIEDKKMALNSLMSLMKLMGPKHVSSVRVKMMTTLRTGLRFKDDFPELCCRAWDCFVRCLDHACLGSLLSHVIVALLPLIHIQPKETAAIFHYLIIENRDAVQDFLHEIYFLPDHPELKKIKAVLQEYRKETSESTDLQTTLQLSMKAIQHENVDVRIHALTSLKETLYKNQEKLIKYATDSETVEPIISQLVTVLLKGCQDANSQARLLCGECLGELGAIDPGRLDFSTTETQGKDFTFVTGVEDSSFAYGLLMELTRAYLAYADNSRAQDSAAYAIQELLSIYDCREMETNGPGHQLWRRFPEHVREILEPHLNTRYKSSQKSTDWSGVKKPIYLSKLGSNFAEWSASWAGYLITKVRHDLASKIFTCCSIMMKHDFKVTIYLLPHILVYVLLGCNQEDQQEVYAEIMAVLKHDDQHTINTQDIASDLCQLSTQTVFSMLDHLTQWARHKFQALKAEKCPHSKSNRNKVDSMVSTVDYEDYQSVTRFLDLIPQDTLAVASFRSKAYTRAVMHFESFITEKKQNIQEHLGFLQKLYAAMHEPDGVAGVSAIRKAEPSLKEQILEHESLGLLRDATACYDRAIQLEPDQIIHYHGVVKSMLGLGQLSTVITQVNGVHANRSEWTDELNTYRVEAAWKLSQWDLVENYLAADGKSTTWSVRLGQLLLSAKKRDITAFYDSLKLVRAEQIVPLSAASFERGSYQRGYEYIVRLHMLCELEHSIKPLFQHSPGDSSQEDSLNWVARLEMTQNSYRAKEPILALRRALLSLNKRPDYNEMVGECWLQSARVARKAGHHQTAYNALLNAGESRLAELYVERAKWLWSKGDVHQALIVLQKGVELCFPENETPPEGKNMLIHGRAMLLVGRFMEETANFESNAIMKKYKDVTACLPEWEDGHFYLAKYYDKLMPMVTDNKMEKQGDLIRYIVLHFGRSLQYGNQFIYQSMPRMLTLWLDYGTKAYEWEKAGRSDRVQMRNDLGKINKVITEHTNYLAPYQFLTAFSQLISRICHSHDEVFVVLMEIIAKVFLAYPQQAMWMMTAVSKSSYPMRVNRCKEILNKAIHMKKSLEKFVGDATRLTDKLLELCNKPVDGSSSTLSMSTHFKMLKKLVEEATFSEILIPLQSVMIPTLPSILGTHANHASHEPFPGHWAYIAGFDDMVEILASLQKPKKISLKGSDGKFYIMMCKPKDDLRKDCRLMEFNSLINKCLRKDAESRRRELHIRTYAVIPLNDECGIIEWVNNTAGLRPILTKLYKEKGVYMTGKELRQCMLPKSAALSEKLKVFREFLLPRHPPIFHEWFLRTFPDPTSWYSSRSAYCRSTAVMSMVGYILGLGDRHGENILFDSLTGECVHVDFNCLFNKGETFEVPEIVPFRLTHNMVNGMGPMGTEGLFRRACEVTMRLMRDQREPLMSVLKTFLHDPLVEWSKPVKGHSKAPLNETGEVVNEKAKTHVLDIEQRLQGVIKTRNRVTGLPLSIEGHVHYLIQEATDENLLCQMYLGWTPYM
T1 sequence (Q8WXE1 whole entry partner): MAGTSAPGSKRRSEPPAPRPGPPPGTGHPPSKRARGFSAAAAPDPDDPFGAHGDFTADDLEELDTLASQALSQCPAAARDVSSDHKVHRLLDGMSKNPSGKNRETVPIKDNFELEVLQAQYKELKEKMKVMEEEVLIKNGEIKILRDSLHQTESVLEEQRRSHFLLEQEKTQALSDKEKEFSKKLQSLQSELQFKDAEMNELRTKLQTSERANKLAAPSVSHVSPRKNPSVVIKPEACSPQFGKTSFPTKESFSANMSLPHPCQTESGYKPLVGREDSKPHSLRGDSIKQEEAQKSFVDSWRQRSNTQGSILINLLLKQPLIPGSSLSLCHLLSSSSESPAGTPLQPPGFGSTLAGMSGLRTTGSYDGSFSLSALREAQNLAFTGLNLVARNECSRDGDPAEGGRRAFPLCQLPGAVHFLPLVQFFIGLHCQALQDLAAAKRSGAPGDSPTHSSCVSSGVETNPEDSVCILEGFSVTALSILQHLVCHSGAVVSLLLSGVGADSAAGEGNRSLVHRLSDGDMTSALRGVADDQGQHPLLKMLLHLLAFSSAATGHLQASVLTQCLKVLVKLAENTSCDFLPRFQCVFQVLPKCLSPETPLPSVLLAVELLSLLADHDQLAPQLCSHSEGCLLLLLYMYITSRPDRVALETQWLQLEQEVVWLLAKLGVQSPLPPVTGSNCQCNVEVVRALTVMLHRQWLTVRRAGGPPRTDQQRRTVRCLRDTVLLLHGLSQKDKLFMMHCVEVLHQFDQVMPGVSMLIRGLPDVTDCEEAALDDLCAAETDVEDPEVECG

[2] = Table 1, class symbols, read-out: ATR-ATRIP IC50

| SMILES | IC50 [1] | IC50 (ATR/ATRIP; [2]) | IC50 (ATR/ATRIP) |
| --- | --- | --- | --- |
| C[C@@H]1COC[C@H]2COc3c(nc(-c4c(N)cnc5[nH]ccc45)nc3C3(S(C)(=O)=O)CC3)N21 [A37, 4-[(10S,14R)-6-(1-methanesulfonylcyclopropyl)-14-methyl-8,12-dioxa-1,3,5-triazatricyclo[8.4.0.0^2,7]tetradeca-2,4,6-trien-4-yl]-1H-pyrrolo[2,3-b]pyridin-5-amine] | 100 to 1000 nM | < 1 nM | – |
| C[C@@H]1COC[C@H]2COc3c(nc(-c4ccc(-c5ncc[nH]5)cc4)nc3C(C)(C)S(C)(=O)=O)N21 [A44, (10S,14R)-4-[4-(1H-imidazol-2-yl)phenyl]-6-(2-methanesulfonylpropan-2-yl)-14-methyl-8,12-dioxa-1,3,5-triazatricyclo[8.4.0.0^2,7]tetradeca-2,4,6-triene] | 100 to 1000 nM | < 1 nM | – |
| C[C@@H]1COC[C@H]2COc3c(nc(-c4ccc(C5(CO)CN5)cc4)nc3C(C)(C)S(C)(=O)=O)N21 (stereo partly drawn) [A61, (2-{4-[(5R,8aS)-1-(1-methanesulfonyl-1-methyl-ethyl)-5-methyl-5,6,8a,9-tetrahydro-8H-7,10-dioxa-2,4,4b-triaza-phenanthren-3-yl]-phenyl}-aziridin-2-yl)-methanol] | 1000 to 30000 nM | – | 500 to 30000 nM |
| C[C@@H]1COC[C@H]2COc3c(nc(-c4cccc(C5(CO)CN5)c4)nc3C(C)(C)S(C)(=O)=O)N21 (stereo partly drawn) [A63, (2-{3-[(5R,8aS)-1-(1-methanesulfonyl-1-methyl-ethyl)-5-methyl-5,6,8a,9-tetrahydro-8H-7,10-dioxa-2,4,4b-triaza-phenanthren-3-yl]-phenyl}-aziridin-2-yl)-methanol] | 1000 to 30000 nM | – | 500 to 30000 nM |
| C[C@@H]1COC[C@H]2COc3c(nc(-c4cccc(C5(N)COC5)c4)nc3C(C)(C)S(C)(=O)=O)N21 [A64, 3-{3-[(5R,8aS)-1-(1-methanesulfonyl-1-methyl-ethyl)-5-methyl-5,6,8a,9-tetrahydro-8H-7,10-dioxa-2,4,4b-triaza-phenanthren-3-yl]-phenyl}-oxetan-3-ylamine] | 1000 to 30000 nM | 500 to 30000 nM | – |
| C[C@@H]1COC[C@H]2COc3c(nc(-c4cc5cc(F)ncc5[nH]4)nc3C(C)(C)S(C)(=O)=O)N21 [A67, (5R,8aS)-3-(5-fluoro-1H-pyrrolo[2,3-c]pyridin-2-yl)-1-(1-methanesulfonyl-1-methyl-ethyl)-5-methyl-5,6,8a,9-tetrahydro-8H-7,10-dioxa-2,4,4b-triaza-phenanthrene] | 1000 to 30000 nM | 10 to 100 nM | – |
| C[C@@H]1COC[C@H]2COc3c(nc(Nc4cn[nH]n4)nc3C(C)(C)S(C)(=O)=O)N21 [A69, [(5R,8aS)-1-(1-methanesulfonyl-1-methyl-ethyl)-5-methyl-5,6,8a,9-tetrahydro-8H-7,10-dioxa-2,4,4b-triaza-phenanthren-3-yl]-(2H[1,2,3]triazol-4-yl)-amine] | 100 to 1000 nM | 10 to 100 nM | – |
| C[C@@H]1COC[C@H]2COc3c(nc(-c4ccc5nc(N)ccc5c4)nc3C(C)(C)S(C)(=O)=O)N21 [A72, 6-[(5R,8aS)-1-(1-methanesulfonyl-1-methyl-ethyl)-5-methyl-5,6,8a,9-tetrahydro-8H-7,10-dioxa-2,4,4b-triaza-phenanthren-3-yl]-quinolin-2-ylamine] | 100 to 1000 nM | < 1 nM | – |
| C[C@@H]1COC[C@H]2COc3c(nc(-c4ccc5nc(N)ncc5c4)nc3C(C)(C)S(C)(=O)=O)N21 [A78, 6-[(5R,8aS)-1-(1-methanesulfonyl-1-methyl-ethyl)-5-methyl-5,6,8a,9-tetrahydro-8H-7,10-dioxa-2,4,4b-triaza-phenanthren-3-yl]-quinazolin-2-ylamine] | 100 to 1000 nM | 10 to 100 nM | – |
| CC(C)Nc1cnc2[nH]ccc2c1-c1nc2c(c(C(C)(C)S(C)(=O)=O)n1)OC[C@@H]1COC[C@@H](C)N21 [A81, isopropyl-{4-[(S)-1-(1-methanesulfonyl-1-methyl-ethyl)-5-(R)methyl-5,6,8a,9-tetrahydro-8H-7,10-dioxa-2,4,4b-triaza-phenanthren-3-yl]-1H-pyrrolo[2,3-b]pyridin-5-yl}-amine] | 100 to 1000 nM | 1 to 10 nM | – |
| C[C@@H]1COC[C@H]2COc3c(nc(-c4c(O)cnc5[nH]ccc45)nc3C3(S(C)(=O)=O)CC3)N21 [A91, 4-[(5R,8aS)-1-(1-methanesulfonyl-cyclopropyl)-5-methyl-5,6,8a,9-tetrahydro-8H-7,10-dioxa-2,4,4b-triaza-phenanthren-3-yl]-1H-pyrrolo[2,3-b]pyridin-5-ol] | 100 to 1000 nM | < 1 nM | – |

The next lines start with results.

| IC50 [1] | IC50 (ATR/ATRIP; [2]) | SMILES | IC50 (ATR/ATRIP) |
| --- | --- | --- | --- |
| 100 to 1000 nM | 1 to 10 nM | CNc1nc2ccccc2n1-c1nc2c(c(C(C)(C)S(C)(=O)=O)n1)OC[C@H]1COC[C@@H](C)N21 [A8, {1-[(5R,8aR)-1-(1-Methanesulfonyl-1-methyl-ethyl)-5-methyl-5,6,8a,9-tetrahydro-8H-7,10-dioxa-2,4,4b-triaza-phenanthren-3-yl]-1H-benzimidazol-2-yl}-methyl-amine] | – |
| < 10 nM | < 1 nM | CNc1ncc2[nH]ccc2c1-c1nc2c(c(C(C)(C)S(C)(=O)=O)n1)OC[C@@H]1COC[C@@H](C)N21 [A27, {4-[(5R,8aS)-1-(1-Methanesulfonyl-1-methyl-ethyl)-5-methyl-5,6,8a,9-tetrahydro-8H-7,10-dioxa-2,4,4b-triaza-phenanthren-3-yl]-1H-pyrrolo[2,3-c]pyridin-5-yl}-methyl-amine] | – |
| 10 to 100 nM | < 1 nM | C[C@@H]1COC[C@H]2COc3c(nc(-c4c(F)ncc5[nH]ccc45)nc3C(C)(C)S(C)(=O)=O)N21 [A29, (5R,8aS)-3-(5-Fluoro-1H-pyrrolo[2,3-c]pyridin-4-yl)-1-(1-methanesulfonyl-1-methyl-ethyl)-5-methyl-5,6,8a,9-tetrahydro-8H-7,10-dioxa-2,4,4b-triaza-phenanthrene] | – |
| 10 to 100 nM | < 1 nM | CC(=O)Nc1nc2ccccc2n1-c1nc2c(c(C(C)(C)S(C)(=O)=O)n1)OC[C@@H]1COC[C@@H](C)N21 [A34, N-{1-[(10S,14R)-6-(2-Methanesulfonylpropan-2-yl)-14-methyl-8,12-dioxa-1,3,5-triazatricyclo[8.4.0.0^2,7]tetradeca-2,4,6-trien-4-yl]-1H-1,3-benzodiazol-2-yl}acetamide] | – |
| 10 to 100 nM | < 1 nM | C[C@@H]1COC[C@H]2COc3c(nc(-c4cncc5[nH]ccc45)nc3C(C)(C)S(C)(=O)=O)N21 [A39, (5R,8aS)-1-(1-methanesulfonyl-1-methyl-ethyl)-5-methyl-3-(1H-pyrrolo[2,3-c]pyridin-4-yl)-5,6,8a,9-tetrahydro-8H-7,10-dioxa-2,4,4b-triaza-phenanthrene] | – |
| 10 to 100 nM | 1 to 10 nM | [2H]C([2H])([2H])Nc1cnc2[nH]ccc2c1-c1nc2c(c(C(C)(C)S(C)(=O)=O)n1)OC[C@@H]1COC[C@@H](C)N21 [A42, 4-[(10S,14R)-6-(2-methanesulfonylpropan-2-yl)-14-methyl-8,12-dioxa-1,3,5-triazatricyclo[8.4.0.0^2,7]tetradeca-2,4,6-trien-4-yl]-N-(^2H3)methyl-1H-pyrrolo[2,3-b]pyridin-5-amine] | – |
| 10 to 100 nM | < 1 nM | C[C@@H]1COC[C@H]2COc3c(nc(-c4ccc(CN)cc4)nc3C(C)(C)S(C)(=O)=O)N21 [A46, 4-[(5R,8aS)-1-(1-methanesulfonyl-1-methyl-ethyl)-5-methyl-5,6,8a,9-tetrahydro-8H-7,10-dioxa-2,4,4b-triaza-phenanthren-3-yl]-benzylamine] | – |
| 10 to 100 nM | < 1 nM | C[C@@H]1COC[C@H]2COc3c(nc(Nc4ccn[nH]4)nc3C(C)(C)S(C)(=O)=O)N21 [A73, [(5R,8aS)-1-(1-methanesulfonyl-1-methyl-ethyl)-5-methyl-5,6,8a,9-tetrahydro-8H-7,10-dioxa-2,4,4b-triaza-phenanthren-3-yl]-(2H-pyrazol-3-yl)-amine] | – |
| 10 to 100 nM | 10 to 100 nM | C[C@@H]1COC[C@H]2COc3c(nc(N(C)c4ccn[nH]4)nc3C(C)(C)S(C)(=O)=O)N21 [A74, [(5R,8aS)-1-(1-methanesulfonyl-1-methylethyl)-5-methyl-5,6,8a,9-tetrahydro-8H-7,10-dioxa-2,4,4b-triaza-phenanthren-3-yl]-methyl-(2H-pyrazol-3-yl)-amine] | – |
| 10 to 100 nM | 1 to 10 nM | CCNc1cnc2[nH]ccc2c1-c1nc2c(c(C(C)(C)S(C)(=O)=O)n1)OC[C@@H]1COC[C@@H](C)N21 [A90, ethyl-{4-[(S)-1-(1-methanesulfonyl-1-methyl-ethyl)-5-(R)-methyl-5,6,8a,9-tetrahydro-8H-7,10-dioxa-2,4,4b-triaza-phenanthren-3-yl]-1H-pyrrolo[2,3-b]pyridin-5-yl}-amine] | – |
| 10 to 100 nM | 1 to 10 nM | C[C@@H]1COC[C@H]2COc3c(nc(-n4c(NC5COC5)nc5ccccc54)nc3C(C)(C)S(C)(=O)=O)N21 [A93, {1-[(5R,8aS)-1-(1-methanesulfonyl-1-methyl-ethyl)-5-methyl-5,6,8a,9-tetrahydro-8H-7,10-dioxa-2,4,4b-triaza-phenanthren-3-yl]-1H-benzoimidazol-2-yl}-oxetan-3-yl-amine] | – |
